Data published in US7632972B2, “Compounds and methods for treatment of cancer and modulation of programmed cell death for melanoma and other cancer cells” (The Board of Trustees of the University of Illionis, priority 2003, dated 2009).

What was measured:
Format in all cases: cell-based, human
CAKI-1 = assay: NCI 60 cell line screen (SRB), Renal Cancer
From the text: (§1) The operation of this screen utilizes 60 different human tumor cell lines, representing leukemia, melanoma and cancers of the lung, colon, brain, ovary, breast, prostate, and kidney. The aim is to prioritize for further evaluation, synthetic compounds or natural product samples showing selective growth inhibition or cell killing of particular tumor cell lines. This screen is unique in that the complexity of a 60 cell line dose response produced by a given compound results in a biological response pattern which can be utilized in pattern recognition algorithms. Using these algorithms, it is possible to assign a putative mechanism of action to a test compound, or to determine that the response pattern is unique and not similar to that of any of the standard prototype compounds included in the NCl database (see DTP Overview tab). In addition, following characterization of various cellular molecular targets in the 60 cell lines, it may be possible to select compounds most likely to interact with a specific molecular target.
(§2) The human tumor cell lines of the cancer screening panel are grown in RPMI 1640 medium containing 5% fetal bovine serum and 2 mM L-glutamine. For a typical screening experiment, cells are inoculated into 96 well microtiter plates in 100 μL at plating densities ranging from 5,000 to 40,000 cells/well depending on the doubling time of individual cell lines. After cell inoculation, the microtiter plates are incubated at 37° C., 5% CO2, 95% air and 100% relative humidity for 24 h prior to addition of experimental drugs.
(§3) After 24 h, two plates of each cell line are fixed in situ with TCA, to represent a measurement of the cell population for each cell line at the time of drug addition (Tz). Experimental drugs are solubilized in dimethyl sulfoxide at 400-fold the desired final maximum test concentration and stored frozen prior to use. At the time of drug addition, an aliquot of frozen concentrate is thawed and diluted to twice the desired final maximum test concentration with complete medium containing 50 μg/ml gentamicin. Additional four, 10-fold or ½ log serial dilutions are made to provide a total of five drug concentrations plus control. Aliquots of 100 μl of these different drug dilutions are added to the appropriate microtiter wells already containing 100 μl of medium, resulting in the required final drug concentrations.
(§4) Following drug addition, the plates are incubated for an additional 48 h at 37° C., 5% CO2, 95% air, and 100% relative humidity. For adherent cells, the assay is terminated by the addition of cold TCA. Cells are fixed in situ by the gentle addition of 50 μl of cold 50% (w/v) TCA (final concentration, 10% TCA) and incubated for 60 minutes at 4° C. The supernatant is discarded, and the plates are washed five times with tap water and air dried. Sulforhodamine B (SRB) solution (100 μl) at 0.4% (w/v) in 1% acetic acid is added to each well, and plates are incubated for 10 minutes at room temperature. After staining, unbound dye is removed by washing five times with 1% acetic acid and the plates are air dried. Bound stain is subsequently solubilized with 10 mM trizma base, and the absorbance is read on an automated plate reader at a wavelength of 515 nm. For suspension cells, the methodology is the same except that the assay is terminated by fixing settled cells at the bottom of the wells by gently adding 50 μl of 80% TCA (final concentration, 16% TCA). Using the seven absorbance measurements [time zero, (Tz), control growth, (C), and test growth in the presence of drug at the five concentration levels (Ti)], the percentage growth is calculated at each of the drug concentrations levels. Percentage growth inhibition is calculated as: [(Ti−Tz)/(C−Tz)]×100 for concentrations for which Ti>/=Tz [(Ti−Tz)/Tz]×100 for concentrations for which Ti<Tz.
(§5) Three dose response parameters are calculated for each experimental agent. […]

OVCAR-4 = assay: NCI 60 cell line screen (SRB), Ovarian Cancer
From the text: as §1, §2, §3, §4, §5

SK-OV-3 = assay: NCI 60 cell line screen (SRB), Ovarian Cancer
From the text: as §1, §2, §3, §4, §5

OVCAR-3 = assay: NCI 60 cell line screen (SRB), Ovarian Cancer
From the text: as §1, §2, §3, §4, §5

OVCAR-5 = assay: NCI 60 cell line screen (SRB), Ovarian Cancer
From the text: as §1, §2, §3, §4, §5

OVCAR-8 = assay: NCI 60 cell line screen (SRB), Ovarian Cancer
From the text: as §1, §2, §3, §4, §5

IGROV1 = assay: NCI 60 cell line screen (SRB), Ovarian Cancer
From the text: as §1, §2, §3, §4, §5

SW-620 = assay: NCI 60 cell line screen (SRB), Colon Cancer
From the text: as §1, §2, §3, §4, §5

HCT-15 = assay: NCI 60 cell line screen (SRB), Colon Cancer
From the text: as §1, §2, §3, §4, §5

For COc1cccc(CCNC(=O)CC(c2ccccc2)(c2ccccc2)c2ccccc2)c1 [Compound Z3], the GI50 (CAKI-1; CAKI-1) was 3.16 µM, the TGI (CAKI-1; CAKI-1) was 5.09E−05 and the “Percent Growth” value (CAKI-1; CAKI-1, Log10 Concentration −4.0) was −9%. The “Percent Growth” value (CAKI-1; CAKI-1, Log10 Concentration −5.0) was 21%, the “Percent Growth” value (CAKI-1; CAKI-1, Log10 Concentration −6.0) was 79% and the “Percent Growth” value (CAKI-1; CAKI-1, Log10 Concentration −7.0) was 103%. The “Percent Growth” value (CAKI-1; CAKI-1, Log10 Concentration −8.0) was 97%, the CC50 (CAKI-1; CAKI-1, read-out: LC50 (the source's name)) was greater than 100 µM and the GI50 (OVCAR-4; OVCAR-4) was greater than 100 µM. For the same molecule, the TGI (OVCAR-4; OVCAR-4) was greater than 1.00E−04, the “Percent Growth” value (OVCAR-4; OVCAR-4, Log10 Concentration −4.0) was 92% and the “Percent Growth” value (OVCAR-4; OVCAR-4, Log10 Concentration −5.0) was 80%. The “Percent Growth” value (OVCAR-4; OVCAR-4, Log10 Concentration −6.0) was 82%, the “Percent Growth” value (OVCAR-4; OVCAR-4, Log10 Concentration −7.0) was 106% and the “Percent Growth” value (OVCAR-4; OVCAR-4, Log10 Concentration −8.0) was 92%. For the same molecule, the CC50 (OVCAR-4; OVCAR-4, read-out: LC50 (the source's name)) was greater than 100 µM, the GI50 (SK-OV-3; SK-OV-3) was greater than 100 µM and the TGI (SK-OV-3; SK-OV-3) was greater than 1.00E−04. For the same molecule, the “Percent Growth” value (SK-OV-3; SK-OV-3, Log10 Concentration −4.0) was 87%, the “Percent Growth” value (SK-OV-3; SK-OV-3, Log10 Concentration −5.0) was 84% and the “Percent Growth” value (SK-OV-3; SK-OV-3, Log10 Concentration −6.0) was 97%. For the same molecule, the “Percent Growth” value (SK-OV-3; SK-OV-3, Log10 Concentration −7.0) was 98%, the “Percent Growth” value (SK-OV-3; SK-OV-3, Log10 Concentration −8.0) was 92% and the CC50 (SK-OV-3; SK-OV-3, read-out: LC50 (the source's name)) was greater than 100 µM. The GI50 (OVCAR-3; OVCAR-3) was 4.77 µM, the TGI (OVCAR-3; OVCAR-3) was greater than 1.00E−04 and the “Percent Growth” value (OVCAR-3; OVCAR-3, Log10 Concentration −4.0) was 19%. For the same molecule, the “Percent Growth” value (OVCAR-3; OVCAR-3, Log10 Concentration −5.0) was 40%, the “Percent Growth” value (OVCAR-3; OVCAR-3, Log10 Concentration −6.0) was 71% and the “Percent Growth” value (OVCAR-3; OVCAR-3, Log10 Concentration −7.0) was 102%. For the same molecule, the “Percent Growth” value (OVCAR-3; OVCAR-3, Log10 Concentration −8.0) was 90%, the CC50 (OVCAR-3; OVCAR-3, read-out: LC50 (the source's name)) was greater than 100 µM and the GI50 (OVCAR-5; OVCAR-5) was 11.7 µM. For the same molecule, the TGI (OVCAR-5; OVCAR-5) was greater than 1.00E−04, the “Percent Growth” value (OVCAR-5; OVCAR-5, Log10 Concentration −4.0) was 15% and the “Percent Growth” value (OVCAR-5; OVCAR-5, Log10 Concentration −5.0) was 53%. The “Percent Growth” value (OVCAR-5; OVCAR-5, Log10 Concentration −6.0) was 83%, the “Percent Growth” value (OVCAR-5; OVCAR-5, Log10 Concentration −7.0) was 87% and the “Percent Growth” value (OVCAR-5; OVCAR-5, Log10 Concentration −8.0) was 90%. It also gave a CC50 (OVCAR-5; OVCAR-5, read-out: LC50 (the source's name)) greater than 100 µM, a GI50 (OVCAR-8; OVCAR-8) of 4.98 µM and a TGI (OVCAR-8; OVCAR-8) of 4.77E−05. The “Percent Growth” value (OVCAR-8; OVCAR-8, Log10 Concentration −4.0) was −16%, the “Percent Growth” value (OVCAR-8; OVCAR-8, Log10 Concentration −5.0) was 33% and the “Percent Growth” value (OVCAR-8; OVCAR-8, Log10 Concentration −6.0) was 88%. The “Percent Growth” value (OVCAR-8; OVCAR-8, Log10 Concentration −7.0) was 117%, the “Percent Growth” value (OVCAR-8; OVCAR-8, Log10 Concentration −8.0) was 116% and the CC50 (OVCAR-8; OVCAR-8, read-out: LC50 (the source's name)) was greater than 100 µM. For the same molecule, the TGI (IGROV1; IGROV1) was greater than 1.00E−04, the “Percent Growth” value (IGROV1; IGROV1, Log10 Concentration −4.0) was 10% and the “Percent Growth” value (IGROV1; IGROV1, Log10 Concentration −5.0) was 22%. For the same molecule, the “Percent Growth” value (IGROV1; IGROV1, Log10 Concentration −6.0) was 23%, the “Percent Growth” value (IGROV1; IGROV1, Log10 Concentration −7.0) was 63% and the “Percent Growth” value (IGROV1; IGROV1, Log10 Concentration −8.0) was 29%. It also gave a CC50 (IGROV1; IGROV1, read-out: LC50 (the source's name)) greater than 100 µM, a GI50 (SW-620; SW-620) of 85.2 µM and a TGI (SW-620; SW-620) greater than 1.00E−04. The “Percent Growth” value (SW-620; SW-620, Log10 Concentration −4.0) was 49%, the “Percent Growth” value (SW-620; SW-620, Log10 Concentration −5.0) was 64% and the “Percent Growth” value (SW-620; SW-620, Log10 Concentration −6.0) was 97%. For the same molecule, the “Percent Growth” value (SW-620; SW-620, Log10 Concentration −7.0) was 105%, the “Percent Growth” value (SW-620; SW-620, Log10 Concentration −8.0) was 95% and the CC50 (SW-620; SW-620, read-out: LC50 (the source's name)) was greater than 100 µM. For the same molecule, the GI50 (HCT-15; HCT-15) was greater than 100 µM, the TGI (HCT-15; HCT-15) was greater than 1.00E−04 and the “Percent Growth” value (HCT-15; HCT-15, Log10 Concentration −4.0) was 57%. For the same molecule, the “Percent Growth” value (HCT-15; HCT-15, Log10 Concentration −5.0) was 62%, the “Percent Growth” value (HCT-15; HCT-15, Log10 Concentration −6.0) was 86% and the “Percent Growth” value (HCT-15; HCT-15, Log10 Concentration −7.0) was 99%. For the same molecule, the “Percent Growth” value (HCT-15; HCT-15, Log10 Concentration −8.0) was 103% and the CC50 (HCT-15; HCT-15, read-out: LC50 (the source's name)) was greater than 100 µM.
